Laboratory results reported in paper PMC8769378, “Underlining the Importance of Peripheral Protic Functional Groups to Enhance the Proton Exchange of Gd-Based MRI Contrast Agents” (Inorganic Chemistry, 2021).
Marks after values point to notes of the source that are not given here.

Assays:
[1] = Acid-assisted dissociation kinetics of Gd^III complexes followed by ^1H NMR relaxometry
Excerpt: In order to investigate the kinetic inertness of the Gd^III complex, the dissociation reactions of GdL2 were followed by ^1H NMR relaxometry (21 MHz and 298 K) in the presence of large acid excess ([HCl] = 0.01–1.0 M) to guarantee the pseudo-first-order kinetic conditions.
The kinetic inertness of the GdL2 was characterized by the rates of the dissociation reactions taking place in 0.01–1.0 M HCl solution. The dissociation reactions of the GdL2 were followed by measuring the longitudinal relaxation time of H2O protons (T1) with a Stelar relaxometer connected to a Bruker WP80 NMR electromagnet adapted to variable-field measurements (15–80 MHz proton Larmor frequency). The temperature was controlled with a Stelar VTC-91 airflow heater equipped with a calibrated copper–constantan thermocouple (uncertainty of ±0.1 °C). Measures were carried out at 21 MHz and 25 °C. The longitudinal relaxation time (T1) was measured with the “inversion recovery” method (180° – τ – 90°) by using 16 different τ values with a typical 90° pulse width of 6.5 μs, 4 scans. The measurements were performed with a 1 mM solution of the GdL2 complex. The relaxivity values were given as r1 = 1/T1p + 1/T1w where T1p and T1w are the relaxation times of the bulk water protons in the presence and absence of GdL2. The pseudo-first-order rate constants (kd) were calculated by fitting the relaxation rate (r1 = 1/T1p) data to eq 4. […] 4 where rr and rv are the relaxivity values of the reactants and the product (Gd^3+: r1p = 12.85 (2) mM^–1 s^–1, 21 MHz, 25 °C) and rt is the measured relaxivity at reaction time t. The temperature was maintained at 25 °C, and the ionic strength of the solutions was kept constant at [H^+] ≤ 0.15 M, [HCl] + [NaCl] = 0.15 M. The calculation of the kinetic parameters was performed by the fitting of the absorbance–time and relaxation rate–time data pairs with the Micromath Scientist computer program (version 2.0, Salt Lake City, UT).
Kinetic inertness of GdL2
In order to investigate the kinetic inertness of GdL2, the dissociation reactions of GdL2 were followed
by 1H-NMR relaxometry in the presence of large acid excess ([HCl]= 0.01 – 1.0 M) to guarantee the
pseudo-first-order kinetic conditions. The R1obs values as a function of time for the dissociation
In the presence of HCl excess, the dissociation of GdL2 can be treated as a pseudo-first-order process
and the rate of the reaction can be expressed by Eq. (S7)
where kd is a pseudo-first-order rate constant, [GdL]t and [GdL]tot are the concentrations of the GdL
species at time t and the total concentration of the complex, respectively. The rates of the dissociation
reactions were determined at different concentrations of HCl ([HCl]=0.01 – 1.0 M).
The proton assisted dissociation
of GdL2 might occur by the equilibrium formation of a protonated *Gd(H2L2) intermediate (Eq.
(S8)), which dissociates spontaneously (Eq. (S9)).
Gd(HL2) + H Gd(H2L2) (S8)

[2] = Stability and protonation constants of Ca^II complexes by pH potentiometry; format: physicochemical
Excerpt: The metal complexes of biomedical interest must show a high in vivo stability, which includes high thermodynamic stability and kinetic inertness to allow targeting applications and to avoid possible toxic effects derived by metal ion and ligand release via transmetalation or transchelation reactions.[2],[3],[13] The protonation constants of L2 as well as the stability and the protonation constants of GdL2 and those of the most important endogenous divalent metal complexes (Ca^II-, Zn^II-, and Cu^II) were determined by pH potentiometry (Table 1 and Table S1). In the case of GdL1, we were interested in determining the dissociation constant of the hydroxyl group that was measured also by pH potentiometry (Table 1). […]
The stability and protonation constants of Ca^2+, Zn^2+, and Cu^2+ complexes formed with the […] ligand were determined by pH potentiometric titration. […] The protonation constants of the GdL1 and GdL2 complexes were determined using pH potentiometry by titrating the preprepared complexes from pH = 3.0 to pH = 12 for GdL2 and from pH = 4.0 to pH = 12 for GdL1 with 0.2 M NaOH. The stability constants of GdL2 were determined by the “out-of-cell” technique because of the slow formation reaction. The pH range of the complexation equilibria and the time needed to reach the equilibria were determined by relaxometry for the formation of GdL2. […]

[3] = Conditional stability constant pGd; format: physicochemical; conditions: pGd = −log[Gd]free, [Gd^3+] = 1 μM, [L] = 10 μM, pH = 7.4; calculated from the constants

| kd at pH = 7.4 ([1]; calculated from acid-assisted dissociation only, pH = 7.4, 298 K, comparators from literature constants) | K^HGdL ([1]; protonation constant of GdHL from kinetic data, 298 K) | CaHL (log K, protonation constant of the complex) ([2]; 0.15 M NaCl, 25 °C) | CaL (log K, stability constant) ([2]; I = 0.15 M NaCl, 298 K) | pGd [3] | Structure (SMILES) | k1 (acid-catalyzed dissociation rate constant) ([1]; k1 = kGdH2L × K^HGd(HL), [HCl] = 0.01–1.0 M, 298 K) |
| --- | --- | --- | --- | --- | --- | --- |
| 9.01 × 10^–12 s^–1 | 0.5 ± 0.1 (GdHL) M^–1 |  |  |  | O=C([O-])CN1CCN(CC(=O)[O-])CCN(CC(O)C(=O)O)CCN(CC(=O)[O-])CC1.[Gd+3] (stereo not drawn) [GdL2] | (2.3 ± 0.1) × 10^–4 M^–1 s^–1 |
|  |  | 5.20 (5) | 11.63 (1) | 16.87 ^h | O=C(O)CN1CCN(CC(=O)O)CCN(C[C@@H](O)C(=O)O)CCN(CC(=O)O)CC1 [L2, (R)2,2′,2″-(10-(2-Carboxy-2-hydroxyethyl)-1,4,7,10-tetraazacyclododecane-1,4,7-triyl) Triacetic Acid] |  |
